From patent US11680904B2, “Automated system for high-throughput all-optical dynamic electrophysiology” (The George Washington University, priority 2016, dated 2023)

Experiments:
[1] = tested on: ChR2-CMs (neonatal rat ventricular CMs); type: cell-based
Experimental: (§1) Primary CMs were used through the study for all illustrative experiments with pharmacological treatments, mainly because at the current stage, they are perceived as more mature than the hiPSC-CMs and their response to drugs has been better documented. Briefly, neonatal (2-3 day old) SPRAGUE-DAWLEY® rats were sacrificed and ventricular tissue was removed per an approved Stony Brook University IACUC protocol. The tissue was digested overnight at 4° C. using 1 mg/mL trypsin (US BIOCHEMICALS®, Cleveland, Ohio) in Hanks' Balanced Salt Solution (HBSS, GIBCO® INVITROGEN™, Carlsbad, Calif.). The next morning, the tissue was serially digested using 1 mg/mL collagenase (WORTHINGTON BIOCHEMICAL®, Lakewood, N.J.) in HBSS at 37° C. and pipetted into conical tubes and placed on ice. After centrifugation, cells were re-suspended in culture medium M199 (GIBCO®) supplemented with […] L-glutamine (GIBCO®), 0.05 μg/mL penicillin-streptomycin (MEDIATECH CELLGRO™, Kansas City, Mo.), 0.2 μg/mL vitamin B12 (SIGMA ALDRICH®, St. Louis, Mo.), 10 mM HEPES (GIBCO®), 3.5 mg/mL D-(+)-glucose (SIGMA ALDRICH®), and 10% fetal bovine serum, FBS (GIBCO®). Fibroblasts were removed via a two-step pre-plating process, where the cell suspension was plated in a flask and incubated (37° C., 5% CO2) for 45-60 minutes and switched to a new flask and the incubation repeated. CMs were then counted using a hemocytometer prior to plating in glass-bottom 96-well plates (see Jia, Z. et al. Circulation. Arrhythmia and electrophysiology 4, 753-760, (2011) and Chung, C. Y., et al. J Cardiovasc Electrophysiol […], 1323-1329, (2007)).
Adenoviral delivery of ChR2(H134R) to primary CMs was performed in suspension (see Ambrosi, C. M. et al. Methods Mol Biol 1181, 215-228, (2014)). Briefly, the plasmid pcDNA3.1/hChR2(H134R)-EYFP was used (ADDGENE™, Cambridge, Mass.; deposited by Dr. K. Deisseroth) (see Zhang, F. et al. Nature 446, 633-639, (2007)), to develop an adenoviral construct (pBR322 backbone) with a ubiquitous CMV promoter. First-generation adenovirus was generated by homologous recombination of the Ad-CMV-ChR2-eYFP into pTG3604; further propagation and purification of the virus genomes was done by transfection into HEK293 cells and CsC1 banding. CMs were re-suspended in 2% FBS M199 after counting and diluted to 1.125×10^6 cells/mL and infected using an optimized MOI of 15 for two hours in an incubator (37° C., 5% CO2) with gentle agitation every 20 minutes. The MOI had been optimized during preliminary experiments to achieve >95% ChR2 expression in CMs within 48 hours using titer of 10^12 units/mL diluted in PBS, confirmed by eYFP reporter visualization and minimal cell death (by propidium iodide staining) (see Ambrosi, C. M., et al. Prog Biophys Mol Biol 115, 294-304, (2014) and Ambrosi, C. M. et al. Methods Mol Biol 1181, 215-228, (2014)). After two hours, the cell suspension was centrifuged and culture medium was removed and replaced with fresh 10% FBS M199 for plating (see Ambrosi, C. M. et al. Methods Mol Biol 1181, 215-228, (2014)).
Non-infected control CMs and ChR2-CM cells (for OptoHTS) were plated using a concentration of 1.125×10^6 cells/mL to achieve a plating density of 470,000 cells/cm^2. For CM/ChR2-HEK co-cultures, CMs at a concentration of 1.125×10^6 cells/mL were mixed in a conical with trypsinized ChR2-HEK cells, pre-diluted to achieve ratios 150:1 CM to ChR2-HEK. After centrifugation, the media was removed and the cells were re-suspended in fresh 10% FBS M199 to achieve the same density of plating as the control CMs.
All functional experiments were carried out 4-5 days after cell plating, at room temperature in Tyrode's solution containing the following (in mM): NaCl, 135; MgCl2, 1; KCl, 5.4; CaCl2, 1.5; NaH2PO4, 0.33; glucose, 5; and HEPES, 5 adjusted to pH 7.4 with NaOH (see Chung, C. Y., et al. J Cardiovasc Electrophysiol 18, 1323-1329, (2007)). […]

[2] = tested on: "spark"-ChR2-CMs; assay: sOptoHTS: all-optical electrophysiology of CMs sprinkled with "spark" ChR2-HEK cells; type: cell-based, rat
Experimental: as §1
The cell delivery approach employs “spark” cells (ChR2(H134R)-HEK293), a stable cell line showing near 100% expression of ChR2. “Spark” cells were developed by transfecting HEK293 cells (CRL-1573™ ATCC®, Manassas, Va.) with the ChR2 plasmid pcDNA3.1/hChR2(H134R)-EYFP using LIPOFECTAMINE® 2000 (INVITROGEN™, Carlsbad, Calif.). […]

[3] = tested on: hiPS-CMs; assay: Optical calcium recording in hiPS-CMs (OptoDyCE); type: cell-based, human; details: 1 μM, 10 min
Experimental: Frozen human iPSC-derived CMs (ICELL® Cardiomyocytes^2 CMC-100-012-001, CELLULAR DYNAMICS INTERNATIONAL™, Madison, Wis.) were thawed per the manufacturer's instructions. The cells were plated at the recommended plating density of 156,000 cells/cm^2 on fibronectin-coated 96-well glass-bottom plates. In some experiments, cells were grown in three-dimensional microgrooved scaffolds. These fibronectin-coated PDMS (SYLGARD® 184, DOW CORNING®, Midland, Mich.) scaffolds with microtopographical features (see FIG. 16, panel “e,” peak-to-peak 120 μm, depth of 50 μm) were produced by molding onto metal templates fabricated by acoustic micromachining (see Entcheva, E. et al. Lab Chip 5, 179-183, (2005); Chung, C. Y. et al. FASEB journal: official publication of the Federation of American Societies for Experimental Biology 25, 851-862, (2011); and Chung, C. Y., et al. J Cardiovasc Electrophysiol 18, 1323-1329, (2007)); and small circular microgrooved scaffolds were punched-out and placed in the 96-well plates. […]
Optical recording of membrane voltage, Vm, was performed using the synthetic voltage-sensitive dye Di-4-ANBDQBS, spectrally-compatible with ChR2. […] Intracellular calcium, [Ca^2+]i, was recorded using QUEST RHOD-4™, AM diluted from a 0.5 mM stock solution dissolved in DMSO with 20% PLURONIC® to 10 μM in Tyrode's solution. […]

Structure (SMILES): C[S+](C)[O-] [DMSO]
- effect on APD / electrophysiological measurements [1]: not seen to affect the electrophysiological (EP) measurements

Structure (SMILES): CN(CCOc1ccc(NS(C)(=O)=O)cc1)CCc1ccc(NS(C)(=O)=O)cc1 [dofetilide, Dofetilide]
- calcium instability / spatial heterogeneity ([1]; 0.02 μM, paced at 1 Hz, 0.539 mW/mm^2 10 ms light pulses): localized spontaneous calcium release (SCR)
- spatial variability in APD (dispersion of repolarization) ([1]; 2 μM, 1 Hz pacing, versus control, p<0.05 for APD50): increases spatial variability in APD
- effect on APD ([1]; 2 μM, 2 Hz optical pacing): APD prolongation
- voltage instabilities ([1]; 2 μM, 2 Hz optical pacing): alternans
- relative APD50 change versus pacing frequency ([1]; at higher frequency, opposite to reverse-use dependence): enhanced relative APD50 prolongation
- drug-induced AP variation, lower dose ([2]; 0.2 μM, paced at 1 Hz): sporadic EADs
- drug-induced AP variation, higher dose ([2]; 2 μM, paced 2 Hz): large temporal variability in AP morphology
- early afterdepolarizations (EADs) versus dose ([2]; optically paced samples, FIGS. 10A-10C): dose-dependent increase in EADs

Structure (SMILES): CC(C)NCC(O)c1ccc(O)c(O)c1 (stereo not shown) [isoproterenol]
- calcium-mediated pacing activity in quiescent cells ([3]; quiescent hiPS-CMs): calcium-mediated pacing activity was induced
- rate of pacing in spontaneously beating cells ([3]; spontaneously beating hiPS-CMs): rate of pacing was accelerated

Structure (SMILES): COC(=O)C1=C(C)NC(C)=C(C(=O)OC)C1c1ccccc1[N+](=O)[O-] [nifedipine, Nifedipine]
- concentration of maximum APD shortening ([1]; optical pacing 1 Hz): around 1 μM
- concentration up to which CTD monotonically decreases ([1]; optical pacing 1 Hz): up to 10 μM
